Assays:
Test in all cases: adenylation: pyrophosphate exchange or coupled pyrophosphate release assay
Type in all cases: biochemical
Settings in all cases: adenylation step; ATP
[1] = target: T1, glycyl-tRNA synthetase (GlyRS, class IIC) (Escherichia coli, UniProt P00960)
T1 sequence (P00960 1-303): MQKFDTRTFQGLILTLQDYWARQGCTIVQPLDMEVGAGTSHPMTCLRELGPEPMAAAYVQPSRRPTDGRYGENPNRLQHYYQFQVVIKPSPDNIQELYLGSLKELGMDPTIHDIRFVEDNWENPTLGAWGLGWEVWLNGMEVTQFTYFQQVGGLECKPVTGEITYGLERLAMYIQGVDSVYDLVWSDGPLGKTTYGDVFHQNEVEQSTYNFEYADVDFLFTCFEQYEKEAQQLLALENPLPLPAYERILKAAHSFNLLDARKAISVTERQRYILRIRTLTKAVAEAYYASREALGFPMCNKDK
T1 sequence (P00961 2-689 partner): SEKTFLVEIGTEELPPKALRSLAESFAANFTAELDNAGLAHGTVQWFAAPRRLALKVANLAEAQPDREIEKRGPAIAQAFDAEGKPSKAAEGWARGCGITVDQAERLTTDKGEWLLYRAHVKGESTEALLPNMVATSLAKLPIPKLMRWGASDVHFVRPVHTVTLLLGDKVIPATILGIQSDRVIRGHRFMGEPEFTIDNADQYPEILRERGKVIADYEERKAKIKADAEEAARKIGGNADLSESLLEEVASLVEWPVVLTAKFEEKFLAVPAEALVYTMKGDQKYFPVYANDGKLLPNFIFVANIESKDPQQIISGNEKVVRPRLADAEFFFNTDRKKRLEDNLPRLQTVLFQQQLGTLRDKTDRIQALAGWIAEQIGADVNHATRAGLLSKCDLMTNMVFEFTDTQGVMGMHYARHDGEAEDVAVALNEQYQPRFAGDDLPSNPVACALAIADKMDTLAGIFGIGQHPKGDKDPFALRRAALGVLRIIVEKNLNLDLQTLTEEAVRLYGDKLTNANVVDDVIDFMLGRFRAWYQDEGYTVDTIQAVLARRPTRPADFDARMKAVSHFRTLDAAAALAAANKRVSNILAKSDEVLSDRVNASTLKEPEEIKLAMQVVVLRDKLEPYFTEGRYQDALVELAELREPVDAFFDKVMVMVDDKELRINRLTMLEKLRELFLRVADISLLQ

[2] = target: phenylalanyl-tRNA synthetase (PheRS, class IIC) (Escherichia coli, UniProt P08312)
[3] = target: T2, tyrosyl-tRNA synthetase (TyrRS, class IC) (Escherichia coli, UniProt P0AGJ9)
T2 sequence (P0AGJ9 2-424): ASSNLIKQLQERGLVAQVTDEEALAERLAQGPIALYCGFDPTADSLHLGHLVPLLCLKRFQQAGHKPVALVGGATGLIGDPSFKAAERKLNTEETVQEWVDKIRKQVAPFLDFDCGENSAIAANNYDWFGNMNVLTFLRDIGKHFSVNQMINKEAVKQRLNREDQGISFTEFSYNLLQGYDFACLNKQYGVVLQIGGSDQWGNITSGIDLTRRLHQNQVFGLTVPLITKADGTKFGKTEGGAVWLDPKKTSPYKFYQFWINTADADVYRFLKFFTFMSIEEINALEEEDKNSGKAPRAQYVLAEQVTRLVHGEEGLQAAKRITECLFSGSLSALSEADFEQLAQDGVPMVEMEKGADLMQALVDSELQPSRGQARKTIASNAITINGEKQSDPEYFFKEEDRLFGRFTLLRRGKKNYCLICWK

phenylalanyl-tRNA synthetase (PheRS, class IIC), sequence (P08312 whole entry): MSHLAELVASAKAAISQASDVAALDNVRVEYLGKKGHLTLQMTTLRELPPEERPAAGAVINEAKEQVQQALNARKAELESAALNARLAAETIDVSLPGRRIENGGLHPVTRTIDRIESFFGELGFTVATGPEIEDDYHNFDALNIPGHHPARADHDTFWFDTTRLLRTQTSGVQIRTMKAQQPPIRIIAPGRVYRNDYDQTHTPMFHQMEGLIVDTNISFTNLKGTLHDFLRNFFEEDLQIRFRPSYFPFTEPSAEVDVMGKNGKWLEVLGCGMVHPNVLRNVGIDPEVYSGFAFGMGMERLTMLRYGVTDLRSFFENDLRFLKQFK
phenylalanyl-tRNA synthetase (PheRS, class IIC), sequence (P07395 whole entry partner): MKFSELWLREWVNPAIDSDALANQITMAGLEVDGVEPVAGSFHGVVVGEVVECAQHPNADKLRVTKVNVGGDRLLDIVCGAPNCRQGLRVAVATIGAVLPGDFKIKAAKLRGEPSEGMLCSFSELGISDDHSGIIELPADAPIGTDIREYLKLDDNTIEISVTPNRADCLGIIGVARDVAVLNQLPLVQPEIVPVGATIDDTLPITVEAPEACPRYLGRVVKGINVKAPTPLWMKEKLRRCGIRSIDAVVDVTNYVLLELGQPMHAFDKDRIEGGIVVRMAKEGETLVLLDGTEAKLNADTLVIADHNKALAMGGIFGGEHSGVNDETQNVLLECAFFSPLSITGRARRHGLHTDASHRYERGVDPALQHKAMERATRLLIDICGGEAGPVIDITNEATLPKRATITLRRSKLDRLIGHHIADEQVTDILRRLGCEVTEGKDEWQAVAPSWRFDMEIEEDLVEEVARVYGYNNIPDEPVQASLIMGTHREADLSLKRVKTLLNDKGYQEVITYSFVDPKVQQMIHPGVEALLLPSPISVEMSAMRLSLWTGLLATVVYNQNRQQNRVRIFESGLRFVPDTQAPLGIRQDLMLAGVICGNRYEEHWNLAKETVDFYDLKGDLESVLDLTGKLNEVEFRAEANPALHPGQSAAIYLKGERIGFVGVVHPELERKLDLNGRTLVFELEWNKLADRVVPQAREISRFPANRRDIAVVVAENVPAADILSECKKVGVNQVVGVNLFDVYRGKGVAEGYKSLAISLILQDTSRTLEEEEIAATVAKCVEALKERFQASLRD

Row | SMILES | KM [1] | KM [2] | further results
1 | NCC(=O)O [α-Gly] | GlyRS and PheRS (class II) tolerate the expanded β^3-amino acid backbone |  | 
2 | N[C@@H](Cc1ccccc1)C(=O)O [α-Phe] |  | GlyRS and PheRS (class II) tolerate the expanded β^3-amino acid backbone | 
3 | N[C@@H](Cc1ccc(O)cc1)C(=O)O [α-Tyr] |  |  | KM [3]: GluRS and TyrRS (both class I) show the greatest selection against β^3-amino acid substrates
4 | NCCC(=O)O [β^3-Gly] | GlyRS and PheRS (class II) tolerate the expanded β^3-amino acid backbone |  | 
5 | NC(CC(=O)O)Cc1ccccc1 (stereo not drawn) [β^3-Phe] |  | GlyRS and PheRS (class II) tolerate the expanded β^3-amino acid backbone | 
